Reference: patent publication US5346910A (priority 1992, dated 1994)

What was measured:
[1] = biological target: high affinity agonist conformation of the muscarinic cholinergic receptor (rat brain cerebral cortex homogenate); test: [3H]-Cis-methyldioxolane (3H-CD) binding assay (high affinity); conditions: 1.0 nM 3H-CD, 25° C., 120 minutes
[2] = biological target: muscarinic cholinergic receptor (rat brain cerebral cortex homogenate); format: binding; conditions: 0.25 nM 3H-QNB, 25° C., 120 minutes
[3] = tested on: SDAT patients; conditions: compared to physostigmine; cited from earlier work
[4] = tested on: aged monkey; conditions: aged monkeys; cited from earlier work

SMILES | Ki [1] [µM] | Ki [2] [µM] | improvement in SDAT patients [3] | performance in aged monkey model of SDAT [4]
CN(C)CC#CCN1C(=O)C=CC1=O [1-[4-(Dimethylamino)-2-butynyl]-1H-pyrrole-2,5-dione] | 1.48 | 1.74 |  | 
CSC1CC(=O)N(CC#CCN(C)C)C1=O (centres unmarked) [1-[4-(Dimethylamino)-2-butynyl]-3-(methylthio)-2,5-pyrrolidinedione] | 1.6 | > 100 |  | 
CC1=CC(=O)N(CC#CCN(C)C)C1=O [1-[4-(Dimethylamino)-2-butynyl]-3-methyl-1H-pyrrole-2,5-dione] | 3.4 | 1.4 |  | 
CSC1CC(=O)N(CC#CCN2CCCC2)C1=O (centres unmarked) [3-(Methylthio)-1-[4-(1-pyrrolidinyl)-2-butynyl]-2,5-pyrrolidinedione] | 1.78 | 2.2 |  | 
CC1=CC(=O)N(CC#CCN2CCCC2)C1=O [3-Methyl-1-[4-(1-pyrrolidinyl)-2-butynyl]-1H-pyrrole-2,5-dione] | 0.53 | 0.2 |  | 
C[N+](C)(C)CC#CCN1C(=O)C=CC1=O [4-(2,5-Dihydro-2,5-dioxo-1H-pyrrol-1-yl)-N,N,N-trimethyl-2-butyne-1-aminium iodide] | 0.29 | 11 |  | 
CC1=CC(=O)N(CC#CC[N+](C)(C)C)C1=O [4-(2,5-Dihydro-3-methyl-2,5-dioxo-1H-pyrrol-1-yl)-N,N,N-trimethyl-2-butyne-1-aminium iodide] | 0.56 | 2.3 |  | 
COC(=O)C1=CCCN(C)C1 [arecoline] |  |  | more consistent improvement | significant improvement in performance
O=C1CCCN1CC#CCN1CCCC1 [oxotremorine] |  |  |  | significant improvement in performance
